Columns and labels:
[1] = Cmax in human; type: ADME, organism-based; conditions: in vivo
[2] = biological target: T1, Solute carrier family 22 member 2 (Homo sapiens, UniProt O15244); type: ADME, cell-based
T1 sequence (O15244 whole entry): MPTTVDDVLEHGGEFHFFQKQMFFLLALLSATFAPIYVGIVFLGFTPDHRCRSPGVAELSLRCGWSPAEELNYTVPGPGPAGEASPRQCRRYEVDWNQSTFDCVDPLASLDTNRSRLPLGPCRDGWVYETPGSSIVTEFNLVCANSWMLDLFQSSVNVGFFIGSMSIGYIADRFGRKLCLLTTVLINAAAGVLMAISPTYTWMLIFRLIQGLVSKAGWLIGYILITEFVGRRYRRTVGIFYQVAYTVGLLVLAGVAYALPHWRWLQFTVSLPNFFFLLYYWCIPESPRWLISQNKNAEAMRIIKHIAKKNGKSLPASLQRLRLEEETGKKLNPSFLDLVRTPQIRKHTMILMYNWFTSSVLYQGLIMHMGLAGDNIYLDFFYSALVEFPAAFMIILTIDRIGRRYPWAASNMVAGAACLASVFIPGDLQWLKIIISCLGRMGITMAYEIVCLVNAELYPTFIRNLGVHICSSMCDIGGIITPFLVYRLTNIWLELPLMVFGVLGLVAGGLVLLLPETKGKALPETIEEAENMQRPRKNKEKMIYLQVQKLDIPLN
Description: Inhibition of human OCT2 expressed in HEK-293-Flp-In cells incubated for 3 mins by ASP+ substrate uptake assay

[3] = biological target: T2, Solute carrier family 22 member 1 (Homo sapiens, UniProt O15245); type: ADME, cell-based
T2 sequence (O15245 whole entry): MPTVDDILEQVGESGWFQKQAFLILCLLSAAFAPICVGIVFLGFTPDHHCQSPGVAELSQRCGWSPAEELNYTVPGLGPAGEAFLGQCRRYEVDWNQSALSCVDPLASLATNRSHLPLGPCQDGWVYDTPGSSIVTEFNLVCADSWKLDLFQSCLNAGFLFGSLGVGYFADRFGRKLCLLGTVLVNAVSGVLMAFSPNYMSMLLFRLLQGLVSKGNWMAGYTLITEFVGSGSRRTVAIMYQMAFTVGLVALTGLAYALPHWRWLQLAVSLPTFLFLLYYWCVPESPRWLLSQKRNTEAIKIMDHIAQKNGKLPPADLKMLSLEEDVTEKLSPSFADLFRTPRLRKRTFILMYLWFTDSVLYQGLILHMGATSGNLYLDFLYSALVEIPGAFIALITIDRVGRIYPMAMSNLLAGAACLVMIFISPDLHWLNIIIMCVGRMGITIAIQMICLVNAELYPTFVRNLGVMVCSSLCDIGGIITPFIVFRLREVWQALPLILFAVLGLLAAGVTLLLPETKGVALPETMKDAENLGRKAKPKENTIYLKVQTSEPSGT
Description: Inhibition of human OCT1 expressed in HEK-293-Flp-In cells incubated for 3 mins by ASP+ substrate uptake assay

[4] = Protein binding in human plasma; type: ADME, cell-free; conditions: read-out: PPB (converted)
[5] = biological target: T3, Multidrug and toxin extrusion protein 2 (Homo sapiens, UniProt Q86VL8)
T3 sequence (Q86VL8 whole entry): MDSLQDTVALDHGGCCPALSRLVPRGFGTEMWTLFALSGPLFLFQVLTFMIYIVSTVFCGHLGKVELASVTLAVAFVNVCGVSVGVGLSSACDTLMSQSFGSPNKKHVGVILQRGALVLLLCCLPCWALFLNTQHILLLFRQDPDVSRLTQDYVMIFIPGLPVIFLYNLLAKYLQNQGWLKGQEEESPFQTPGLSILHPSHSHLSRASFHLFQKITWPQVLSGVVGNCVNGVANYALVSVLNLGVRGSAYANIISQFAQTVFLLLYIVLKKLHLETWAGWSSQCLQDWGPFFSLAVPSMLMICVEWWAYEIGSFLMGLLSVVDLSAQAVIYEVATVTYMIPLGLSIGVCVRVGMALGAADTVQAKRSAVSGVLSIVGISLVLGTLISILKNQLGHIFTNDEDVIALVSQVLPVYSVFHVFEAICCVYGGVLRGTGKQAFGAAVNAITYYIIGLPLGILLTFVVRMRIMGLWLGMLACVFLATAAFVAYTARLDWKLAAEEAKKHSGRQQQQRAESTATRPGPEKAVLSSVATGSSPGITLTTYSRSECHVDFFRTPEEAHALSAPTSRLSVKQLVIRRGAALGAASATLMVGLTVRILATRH
Description: Inhibition of human MATE2-K expressed in HEK-293-Flp-In cells incubated for 3 mins by ASP+ substrate uptake assay

cells = conditions: Homo sapiens, 0.05 h
Description: Inhibition of human OCT2 A270S mutant expressed in HEK-293-Flp-In cells incubated for 3 mins by ASP+ substrate uptake assay

[6] = biological target: T4, Multidrug and toxin extrusion protein 1 (Homo sapiens, UniProt Q96FL8)
T4 sequence (Q96FL8 whole entry): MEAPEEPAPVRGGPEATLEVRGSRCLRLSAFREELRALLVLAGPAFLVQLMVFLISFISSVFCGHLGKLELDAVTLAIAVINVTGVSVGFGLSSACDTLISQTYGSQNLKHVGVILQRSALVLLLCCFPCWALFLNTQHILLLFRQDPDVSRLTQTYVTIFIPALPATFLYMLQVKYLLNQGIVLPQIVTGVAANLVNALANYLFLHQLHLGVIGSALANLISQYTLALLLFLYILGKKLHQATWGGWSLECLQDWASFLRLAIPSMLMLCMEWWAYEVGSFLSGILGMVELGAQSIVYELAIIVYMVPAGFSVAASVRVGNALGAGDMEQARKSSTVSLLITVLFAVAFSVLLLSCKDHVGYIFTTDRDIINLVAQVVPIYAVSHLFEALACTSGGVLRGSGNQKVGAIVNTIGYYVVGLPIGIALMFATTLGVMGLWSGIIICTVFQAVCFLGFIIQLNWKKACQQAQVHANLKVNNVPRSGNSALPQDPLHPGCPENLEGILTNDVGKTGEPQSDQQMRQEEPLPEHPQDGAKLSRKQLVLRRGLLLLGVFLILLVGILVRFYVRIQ
Description: Inhibition of human MATE1 expressed in HEK-293-Flp-In cells incubated for 3 mins by ASP+ substrate uptake assay

| Structure (SMILES) | Cmax [1] [µM] | IC50 [2] [µM] | IC50 [3] [µM] | fraction unbound [4] | IC50 [5] [µM] | IC50 (cells) [µM] | IC50 [6] [µM] |
| --- | --- | --- | --- | --- | --- | --- | --- |
| CN/C(=N\CCSCc1nc[nH]c1C)NC#N [CIMETIDINE] | 11.9 | 23 | > 100 | 0.81 | 39 | 20 | – |
| OCCN(CCO)c1nc(N2CCCCC2)c2nc(N(CCO)CCO)nc(N3CCCCC3)c2n1 [DIPYRIDAMOLE] | – | – | 81 | – | – | – | – |
| CC(C)N(CCC(C(N)=O)(c1ccccc1)c1ccccn1)C(C)C (centres undefined) [DISOPYRAMIDE] | – | – | – | 0.5 | > 100 | – | 66 |
| CN(C)CCCN1c2ccccc2CCc2ccccc21 [IMIPRAMINE] | – | – | 37 | 0.1 | > 100 | – | 10 |
| Cc1nccn1CC1CCc2c(c3ccccc3n2C)C1=O (centres undefined) [ONDANSETRON] | 0.13 | – | > 100 | – | – | – | – |
| Nc1c2c(nc3ccccc13)CCCC2 [TACRINE] | – | – | 83 | 0.45 | > 100 | – | – |

From ChEMBL document CHEMBL2150997, “Profiling of a prescription drug library for potential renal drug-drug interactions mediated by the organic cation transporter 2” (J Med Chem, 2011)
